How the values were obtained:
[1] = system: full thickness (excisional) wounds; assay: Accelerated wound healing study, full thickness acute wound model; format: in vivo, albino rats; conditions: rats, topical on wound, over 15 days; versus gauze and Comfeel
Experimental: In the examples of the study, a series of comparative control bandage substrates were evaluated as to the speed at which wounds covered/dressed with such bandages healed. In particular, the rates of re-epithelialization were measured for wounds dressed by such control dressing materials.
Wounds were treated with test and control articles on the day of wounding (day 0) on 2,4,6,8,10, 12, and 14 days after the injury. CNA (freeze dried) was cut to the approximate size of the wound and applied over the wound. Chitosan (powder) and NA (powder) were applied over the wound to the depth that covered the underlying tissue. The gauze was cut to extend approximately 0.5 cm beyond the margins of the wound. […]
For the study, twenty four albino rats (12M/12F), each weighing between 250-300 g, were anesthetized (90 mg/Kg Ketamine HCL and 10 mg/Kg Xylazine) and the entire dorsal region of each rat was shaved. […] The epithelial thickness of the three sections of the wound (margin, center and midpoint between these two) was measured by morphometric analysis of the microscopic image using Image-Pro Plus software, Version 3.0 (Media Cybernetics). The average thickness of these sites within the wound was determined for wound healing of the entire site.

[2] = system: human blood; assay: Lee and White coagulation assay in human blood; conditions: dried form, 5 mg/ml, triplicate
Experimental: Several hemostatic agents were compared to determine relative effectiveness when reviewed with untreated human blood. Such comparison is illustrated in the following Table 23.
Each of the compounds were evaluated in the comparison against the standard control (human blood) and the negative control heparin, which is an anti-coagulant.
Lee and White Coagulation Assay in Human Blood

| Compound | wound healing capability (rate of epithelialization, epithelial thickness) [1] | BLOOD CLOTTING TIME [2] |
| --- | --- | --- |
| NC(=O)c1cccnc1.O=C1O[C@H]([C@@H](O)CO)C(O)=C1O [NA, Niacinamide ascorbate] | dramatically increased the wound healing capability | – |
| Heparin | – | NC (NC = No Clot for 60 min) |
